Legend:
Assay type in all cases: cell-based, human
PD-1 gene = test: Experiment to silence PD-1 gene (RT-PCR / real-time PCR); conditions: SW480 cells, 100 nM, 6 hours
Protocol: SW480 cells were cultured in a 6-well plate. On the next day, the cells were treated with 0, 1, 10, or 100 nM CCC07-01 for 6 hours. The cells were collected, and total RNA was extracted therefrom. The extraction employed RNeasy Plus Mini Kit (Qiagen N.V., CA). Next, cDNA was prepared by reverse transcription with the extracted RNA as a template according to Super Script VILO cDNA Synthesis kit (Invitrogen Corp., CA). RT-PCR was performed with the cDNA as a template under the following conditions: the conditions for PD-1 involved denaturation at 95° C. and then 33 cycles each involving 95° C. for 30 seconds, 56° C. for 30 seconds, and 72° C. for 30 seconds, followed by elongation reaction at 72° C. for 5 minutes. For a control, RT-PCR of GAPDH was performed using the same cDNA as above. The conditions for GAPDH involved denaturation at 95° C. and then 22 cycles each involving 95° C. for 30 seconds, 55° C. for 30 seconds, and 72° C. for 30 seconds, followed by elongation reaction at 72° C. for 5 minutes.
Each RT-PCR product was electrophoresed on 2% agarose and stained with ethidium bromide. qPCR was further performed. […] A relative expression level was quantified with GAPDH as a control.

RKO cells = test: Cytotoxicity test by WST assay, IC50 24 hours after administration; conditions: WST-8
Protocol: (§1) From the cell lines mentioned above, a large intestine cancer cell line SW480 was used as cells expressing PD-1, a large intestine cancer cell line RKO was used as cells expressing PD-L1, and a malignant melanoma cell line A2058 and a pancreatic cancer cell line MIA PaCa-2 were used as cells expressing CTLA-4. The cells of each line were inoculated at 3000 cells/well to a 96-well microplate and cultured overnight. On the next day, the cells were treated with CCC07-01 having a concentration of 0.1, 1, 10, 30, 100, 300, or 1000 nM (1 μM) for 24 hours. Then, WST-8 reagent was added to each well using Cell counting kit-8, and the mixture was reacted for 2 hours. Then, the cell count was calculated at a wavelength of 450 nm by the colorimetric analysis method using a microplate reader. The method for calculating the cell count involved: 1) obtaining the mean value of a medium alone, 2) subtracting the mean value of the medium from each well, 3) obtaining the mean value of DMSO, 4) dividing the medium mean value-subtracted value by the mean value of DMSO and then multiplying by 100, and 5) obtaining the mean value of each treatment group and a standard deviation, and preparing a graph. IC50 was calculated according to the following expression: IC50=10(LOG(A/B)×(50−C)/(D−C)+LOG(B) wherein A: a higher concentration of two concentrations sandwiching 50%, B: a lower concentration of two concentrations sandwiching 50%, C: the rate of inhibition at B, and D: the rate of inhibition at A.
(§2) The cells used in the experiment were RKO (large intestine cancer), SW480 (large intestine cancer), A2058 (malignant melanoma), and MIA PaCa-2 (pancreatic cancer).

MIA PaCa-2 cells = test: as above; conditions: MIA-PaCa2 cells, WST-8
Protocol: as §1, §2

A2058 cells = test: as above; conditions: WST-8
Protocol: as §1, §2

SW480 cells = test: as above; conditions: WST-8
Protocol: as §1, §2

With `CC(=O)Nc1cn(C)c(C(=O)Nc2cc(C(=O)Nc3cn(C)c(C(=O)Nc4cn(C)c(C(=O)NCCC(=O)Nc5cc(C(=O)Nc6cc(C(=O)NCCCC(=O)Nc7cc(C(=O)Nc8cn(C)c(C(=O)NCCC(=O)Nc9cc(C(=O)Nc%10cc(C(=O)Nc%11ccc%12[nH]c(C(=O)N%13CC(CCl)c%14c%13cc(O)c%13ccccc%14%13)cc%12c%11)n(C)c%10)n(C)c9)n8)n(C)c7)n(C)c6)n(C)c5)n4)n3)n(C)c2)n1` (centres unmarked) [CCC07-01] the “expression of PD-1” value (PD-1 gene) was “markedly decreased”, the IC50 (RKO cells) was 0.012 µM and the IC50 (MIA PaCa-2 cells) was 0.189 µM. The IC50 (A2058 cells) was 0.011 µM and the IC50 (SW480 cells) was 0.027 µM.
